Results as given in PubChem BioAssay AID1963445 (Molecular Pharmacology Branch, DTP, NCI, 2024).

Test system: MCF7 complex spheroid growth, % test/control
Assay: Anticancer human tumor MCF7 cell line growth inhibition [Asc];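 also: spheroids exposed to compounds for 7 days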;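 as to viability, T/C: 100% = DMSO vehicle control wells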
Settings: for IC50: curve of first compound; for viability, T/C: stronger effect = lower value
Procedure, shortened: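 Tumor cells were grown as multicellular spheroids with stromal HUVEC and mesenchymal stem cells and treated singly or in combination. Concentrations fell in half-log steps from the clinical Cmax, or from 10 microM where none was known.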

Cc1nc(N2CCC3(CC2)COC(C)C3N)c(CO)nc1Sc1ccnc(N)c1Cl (configuration not stated) + Cc1c(S(C)(=O)=O)c(-c2cc(F)cc(N3CCN(c4ccc(NS(=O)(=O)c5ccc(NC(CCN6CCC(C(=O)OCCCP(=O)(O)O)CC6)CSc6ccccc6)c(S(=O)(=O)C(F)(F)F)c5)cc4)CC3)c2)c(-c2ccc(Cl)cc2)n1C(C)C
IC50 (second compound 0.0316 µM): 0.736 µM | IC50 (second compound 0.1 µM): 0.787 µM | IC50 (second compound 0.316 µM): 0.491 µM | IC50 (second compound 1 µM): 0.534 µM | IC50 (second compound 3.16 µM): 0.668 µM | IC50 (second compound 10 µM): 0.789 µM | viability, T/C (second compound 0.0316 µM, first compound 0.00949 µM): 91.3% | viability, T/C (second compound 0.0316 µM, first compound 0.03 µM): 92.1% | viability, T/C (second compound 0.0316 µM, first compound 0.0949 µM): 90% | viability, T/C (second compound 0.0316 µM, first compound 0.3 µM): 88.8% | viability, T/C (second compound 0.0316 µM, first compound 0.949 µM): 39.1% | viability, T/C (second compound 0.0316 µM, first compound 3 µM): 14.7% | viability, T/C (second compound 0.1 µM, first compound 0.00949 µM): 90.6% | viability, T/C (second compound 0.1 µM, first compound 0.03 µM): 79.7% | viability, T/C (second compound 0.1 µM, first compound 0.0949 µM): 73.7% | viability, T/C (second compound 0.1 µM, first compound 0.3 µM): 80% | viability, T/C (second compound 0.1 µM, first compound 0.949 µM): 44.2% | viability, T/C (second compound 0.1 µM, first compound 3 µM): 14.9% | viability, T/C (second compound 0.316 µM, first compound 0.00949 µM): 98.3% | viability, T/C (second compound 0.316 µM, first compound 0.03 µM): 84.2% | viability, T/C (second compound 0.316 µM, first compound 0.0949 µM): 75.2% | viability, T/C (second compound 0.316 µM, first compound 0.3 µM): 72.8% | viability, T/C (second compound 0.316 µM, first compound 0.949 µM): 19.7% | viability, T/C (second compound 0.316 µM, first compound 3 µM): 15.5% | viability, T/C (second compound 1 µM, first compound 0.00949 µM): 80.5% | viability, T/C (second compound 1 µM, first compound 0.03 µM): 84.6% | viability, T/C (second compound 1 µM, first compound 0.0949 µM): 85.7% | viability, T/C (second compound 1 µM, first compound 0.3 µM): 81.2% | viability, T/C (second compound 1 µM, first compound 0.949 µM): 18.9% | viability, T/C (second compound 1 µM, first compound 3 µM): 15.3% | viability, T/C (second compound 3.16 µM, first compound 0.00949 µM): 98.3% | viability, T/C (second compound 3.16 µM, first compound 0.03 µM): 88.4% | viability, T/C (second compound 3.16 µM, first compound 0.0949 µM): 89.5% | viability, T/C (second compound 3.16 µM, first compound 0.3 µM): 80.6% | viability, T/C (second compound 3.16 µM, first compound 0.949 µM): 36.6% | viability, T/C (second compound 3.16 µM, first compound 3 µM): 20.5% | viability, T/C (second compound 10 µM, first compound 0.00949 µM): 247% | viability, T/C (second compound 10 µM, first compound 0.03 µM): 221% | viability, T/C (second compound 10 µM, first compound 0.0949 µM): 202% | viability, T/C (second compound 10 µM, first compound 0.3 µM): 176% | viability, T/C (second compound 10 µM, first compound 0.949 µM): 26% | viability, T/C (second compound 10 µM, first compound 3 µM): 26%
